Broadly, the pIC50 is the negative decadic logarithm of the IC50, by convention in mol/L. For orientation: Cmax means the highest concentration seen after dosing. As a reminder, the inhibition is the change of the read-out against control, counted positive when it falls. High values mean a strong effect, low ones a weak effect.

The structures appear in SMILES notation. pIC50: −log10 of the molar value.

Eleven molecules from ChEMBL document CHEMBL5233239, “Matrix metalloproteinase-9 (MMP-9) and its inhibitors in cancer: A minireview” (Eur J Med Chem, 2020) can be followed below.

In series [1] the target is T1, Matrix metalloproteinase-9 (Homo sapiens, UniProt P14780). The experiment in a line: Inhibition of MMP-9 (unknown origin) using Ac-Pro-Leu-Gly-SCH(CH2 CH(CH3)2)CO-Leu-Gly-OCH2CH3 as substrate preincubated of 0.5 hrs followed by substrate addition and measured after 3 hrs by fluorescence analysis.
T1 sequence (P14780 whole entry): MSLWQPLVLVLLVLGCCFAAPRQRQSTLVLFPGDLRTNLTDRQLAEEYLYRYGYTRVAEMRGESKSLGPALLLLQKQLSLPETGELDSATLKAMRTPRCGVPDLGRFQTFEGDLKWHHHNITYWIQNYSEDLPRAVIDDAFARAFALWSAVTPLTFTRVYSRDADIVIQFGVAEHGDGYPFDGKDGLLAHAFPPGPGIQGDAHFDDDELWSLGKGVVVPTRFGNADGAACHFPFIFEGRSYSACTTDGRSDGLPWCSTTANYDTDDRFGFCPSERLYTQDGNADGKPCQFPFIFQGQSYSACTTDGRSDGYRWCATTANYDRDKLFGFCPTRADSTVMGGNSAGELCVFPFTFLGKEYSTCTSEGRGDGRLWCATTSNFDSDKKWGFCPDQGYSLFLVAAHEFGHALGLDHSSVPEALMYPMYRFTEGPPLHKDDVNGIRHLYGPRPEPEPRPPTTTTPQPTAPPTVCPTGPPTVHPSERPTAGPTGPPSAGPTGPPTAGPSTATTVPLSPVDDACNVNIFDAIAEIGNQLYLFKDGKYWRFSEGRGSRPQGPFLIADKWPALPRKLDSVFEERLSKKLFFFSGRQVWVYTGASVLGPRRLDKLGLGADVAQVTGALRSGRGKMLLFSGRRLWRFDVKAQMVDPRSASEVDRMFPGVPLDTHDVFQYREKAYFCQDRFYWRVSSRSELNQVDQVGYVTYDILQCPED
Series [2] in a line: Cmax in mouse plasma at 200 mg/kg, po by HPLC analysis. In kind it is ADME, organism-based. On the set-up: dose 200 mg/kg, route po.
The target of series [3] is T1, Matrix metalloproteinase-9. The experiment in a line: Inhibition of MMP-9 (unknown origin).
Series [4] concerns the target T1, Matrix metalloproteinase-9. In words: Inhibition of MMP-9 (unknown origin) by fluorimetric assay.
For series [5], the target named is T2, 72 kDa type IV collagenase (Homo sapiens, UniProt P08253). The experiment in a line: Inhibition of MMP-2 (unknown origin) by fluorimetric assay.
Target sequence in this assay (P08253 whole entry): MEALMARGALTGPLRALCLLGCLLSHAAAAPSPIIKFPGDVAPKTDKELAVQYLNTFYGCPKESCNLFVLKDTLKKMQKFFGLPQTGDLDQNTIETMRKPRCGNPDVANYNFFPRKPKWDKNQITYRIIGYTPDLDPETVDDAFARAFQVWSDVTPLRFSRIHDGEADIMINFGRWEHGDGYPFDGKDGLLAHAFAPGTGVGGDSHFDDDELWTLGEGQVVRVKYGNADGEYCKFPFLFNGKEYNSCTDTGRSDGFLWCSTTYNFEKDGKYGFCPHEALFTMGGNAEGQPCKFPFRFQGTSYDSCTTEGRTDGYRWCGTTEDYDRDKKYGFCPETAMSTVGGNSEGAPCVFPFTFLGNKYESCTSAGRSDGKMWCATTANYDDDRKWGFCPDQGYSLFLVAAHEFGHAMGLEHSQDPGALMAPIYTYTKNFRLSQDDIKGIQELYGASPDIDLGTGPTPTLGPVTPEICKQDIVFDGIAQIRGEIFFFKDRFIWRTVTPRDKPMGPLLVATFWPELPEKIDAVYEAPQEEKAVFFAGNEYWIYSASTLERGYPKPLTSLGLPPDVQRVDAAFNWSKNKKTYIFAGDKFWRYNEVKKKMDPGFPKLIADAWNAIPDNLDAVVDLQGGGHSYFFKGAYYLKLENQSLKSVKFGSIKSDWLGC
The target of series [6] is T2, 72 kDa type IV collagenase. In words: Inhibition of MMP-2 (unknown origin) at 20 uM by fluorometric assay.
Target sequence in this assay (P08253 110-660 limits assumed): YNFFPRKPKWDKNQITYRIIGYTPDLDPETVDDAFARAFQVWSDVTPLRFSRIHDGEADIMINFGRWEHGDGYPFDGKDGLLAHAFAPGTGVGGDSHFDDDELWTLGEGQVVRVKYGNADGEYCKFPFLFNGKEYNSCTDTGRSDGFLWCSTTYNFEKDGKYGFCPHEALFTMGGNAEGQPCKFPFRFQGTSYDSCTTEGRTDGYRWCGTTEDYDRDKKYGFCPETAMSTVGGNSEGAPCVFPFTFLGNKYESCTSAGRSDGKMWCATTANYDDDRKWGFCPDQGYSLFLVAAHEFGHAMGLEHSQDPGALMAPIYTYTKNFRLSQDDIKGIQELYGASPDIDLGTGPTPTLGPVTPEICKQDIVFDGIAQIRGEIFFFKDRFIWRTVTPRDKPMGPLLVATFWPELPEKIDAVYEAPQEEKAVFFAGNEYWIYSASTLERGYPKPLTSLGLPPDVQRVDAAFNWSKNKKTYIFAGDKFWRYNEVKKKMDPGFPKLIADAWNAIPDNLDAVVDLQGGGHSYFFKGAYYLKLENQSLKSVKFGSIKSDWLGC
In series [7] the target is T3, Stromelysin-1 (Homo sapiens, UniProt P08254). The experiment in a line: Inhibition of MMP-3 (unknown origin) at 20 uM by fluorometric assay.
Target sequence in this assay (P08254 100-477 limits assumed): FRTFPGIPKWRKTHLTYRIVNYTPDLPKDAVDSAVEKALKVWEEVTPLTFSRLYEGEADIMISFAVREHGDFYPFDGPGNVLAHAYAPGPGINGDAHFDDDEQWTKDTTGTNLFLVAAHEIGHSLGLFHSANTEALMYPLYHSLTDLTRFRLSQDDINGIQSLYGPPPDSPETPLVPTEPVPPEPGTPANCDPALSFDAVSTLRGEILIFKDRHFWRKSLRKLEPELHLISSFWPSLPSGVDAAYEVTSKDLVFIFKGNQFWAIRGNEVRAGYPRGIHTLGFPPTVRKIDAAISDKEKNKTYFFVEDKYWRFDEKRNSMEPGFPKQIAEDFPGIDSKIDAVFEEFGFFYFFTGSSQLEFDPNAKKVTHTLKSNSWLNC
In series [8] the target is T4, Matrilysin (Homo sapiens) (UniProt P09237).
T4 sequence (whole entry): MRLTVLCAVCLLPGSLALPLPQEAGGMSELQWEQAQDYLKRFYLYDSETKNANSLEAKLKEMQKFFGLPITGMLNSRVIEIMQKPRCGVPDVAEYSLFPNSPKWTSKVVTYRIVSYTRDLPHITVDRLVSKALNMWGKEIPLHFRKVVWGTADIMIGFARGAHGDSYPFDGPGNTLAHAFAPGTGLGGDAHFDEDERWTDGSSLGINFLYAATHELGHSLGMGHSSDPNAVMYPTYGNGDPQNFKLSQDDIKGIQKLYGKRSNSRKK
The experiment in a line: Inhibition of MMP-7 (unknown origin) at 20 uM by fluorometric assay.

Series [9] addresses Neutrophil collagenase (Homo sapiens, UniProt P22894). The experiment in a line: Inhibition of MMP-8 (unknown origin) at 20 uM by fluorometric assay.
In series [10] the target is T1, Matrix metalloproteinase-9. The experiment in a line: Inhibition of MMP-9 (unknown origin) at 20 uM by fluorometric assay.
Series [11] concerns the target Macrophage metalloelastase (Homo sapiens) (UniProt P39900). The experiment in a line: Inhibition of MMP-12 (unknown origin) at 20 uM by fluorometric assay.
For series [12], the target named is Matrix metalloproteinase-14 (Homo sapiens) (UniProt P50281). The experiment in a line: Inhibition of MMP-14 (unknown origin) at 20 uM by fluorometric assay.
The target in series [13] is T5, Interstitial collagenase (Homo sapiens, UniProt P03956).
T5 sequence (P03956 whole entry): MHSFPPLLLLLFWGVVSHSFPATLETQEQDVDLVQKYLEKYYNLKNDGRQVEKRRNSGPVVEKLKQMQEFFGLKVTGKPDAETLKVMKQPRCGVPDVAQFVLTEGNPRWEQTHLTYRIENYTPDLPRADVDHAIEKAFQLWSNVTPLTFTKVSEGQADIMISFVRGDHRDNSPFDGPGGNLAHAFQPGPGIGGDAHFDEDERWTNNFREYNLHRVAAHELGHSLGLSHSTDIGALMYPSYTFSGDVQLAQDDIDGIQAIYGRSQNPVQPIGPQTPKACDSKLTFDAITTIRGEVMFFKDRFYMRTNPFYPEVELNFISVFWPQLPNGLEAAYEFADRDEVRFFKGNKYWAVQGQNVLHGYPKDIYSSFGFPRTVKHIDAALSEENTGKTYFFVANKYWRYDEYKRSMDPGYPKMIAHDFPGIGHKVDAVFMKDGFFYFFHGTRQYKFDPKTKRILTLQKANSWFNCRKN
In words: Inhibition of MMP-1 (unknown origin).

For series [14], the target named is T6, Collagenase 3 (Homo sapiens, UniProt P45452).
Description: Inhibition of MMP-13 (unknown origin)
For series [15], the target named is Disintegrin and metalloproteinase domain-containing protein 17 (Homo sapiens, UniProt P78536). In words: Inhibition of TACE (unknown origin).
Chain of Disintegrin and metalloproteinase domain-containing protein 17 (P78536 whole entry, the tested form may be a part): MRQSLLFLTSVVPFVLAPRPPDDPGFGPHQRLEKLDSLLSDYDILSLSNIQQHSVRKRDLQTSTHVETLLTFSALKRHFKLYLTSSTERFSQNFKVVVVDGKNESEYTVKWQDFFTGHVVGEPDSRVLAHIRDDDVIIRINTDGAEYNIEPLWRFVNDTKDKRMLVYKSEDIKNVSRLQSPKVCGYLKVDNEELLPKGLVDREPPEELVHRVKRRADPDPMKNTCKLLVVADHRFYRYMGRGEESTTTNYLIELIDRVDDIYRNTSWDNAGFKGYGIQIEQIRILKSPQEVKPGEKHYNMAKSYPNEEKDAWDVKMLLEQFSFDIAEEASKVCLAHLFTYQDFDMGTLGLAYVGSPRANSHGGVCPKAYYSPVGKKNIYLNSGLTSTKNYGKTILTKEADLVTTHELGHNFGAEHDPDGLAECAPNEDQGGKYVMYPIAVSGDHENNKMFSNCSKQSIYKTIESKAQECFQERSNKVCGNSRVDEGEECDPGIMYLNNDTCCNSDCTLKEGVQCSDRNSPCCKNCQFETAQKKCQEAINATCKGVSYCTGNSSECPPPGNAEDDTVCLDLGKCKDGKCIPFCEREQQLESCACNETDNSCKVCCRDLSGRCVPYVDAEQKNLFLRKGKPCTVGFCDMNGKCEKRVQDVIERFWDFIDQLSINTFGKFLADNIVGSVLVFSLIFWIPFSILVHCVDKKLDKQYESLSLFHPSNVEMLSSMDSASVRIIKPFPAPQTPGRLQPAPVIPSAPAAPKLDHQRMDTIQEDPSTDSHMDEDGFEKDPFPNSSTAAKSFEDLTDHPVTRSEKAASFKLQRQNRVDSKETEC
In series [16] the target is T1, Matrix metalloproteinase-9. In words: Inhibition of human MMP9 using Dnp-Pro-Cha-Gly-Cys(Me)-His-Ala-Lys(Nma)-NH2 substrate by fluorimetric analysis.
The target of series [17] is T2, 72 kDa type IV collagenase. In words: Inhibition of human MMP2 using Dnp-Pro-Cha-Gly-Cys(Me)-His-Ala-Lys(Nma)-NH2 substrate by fluorimetric analysis.
Target sequence in this assay (P08253 whole entry): as the sequence (P08253 whole entry) above
For series [18], the target named is T5, Interstitial collagenase. In words: Inhibition of human MMP1 using Dnp-Pro-Cha-Gly-Cys(Me)-His-Ala-Lys(Nma)-NH2 substrate by fluorimetric analysis.
Series [19] concerns the target T3, Stromelysin-1. In words: Inhibition of human MMP3 using (7-methoxycoumarine-4-yl)-Arg-Pro-Lys-Pro-Tyr-Ala-Nva-Trp-Met-Lys(Dnp)-NH2 substrate by fluorimetric analysis.
Target sequence in this assay (P08254 whole entry): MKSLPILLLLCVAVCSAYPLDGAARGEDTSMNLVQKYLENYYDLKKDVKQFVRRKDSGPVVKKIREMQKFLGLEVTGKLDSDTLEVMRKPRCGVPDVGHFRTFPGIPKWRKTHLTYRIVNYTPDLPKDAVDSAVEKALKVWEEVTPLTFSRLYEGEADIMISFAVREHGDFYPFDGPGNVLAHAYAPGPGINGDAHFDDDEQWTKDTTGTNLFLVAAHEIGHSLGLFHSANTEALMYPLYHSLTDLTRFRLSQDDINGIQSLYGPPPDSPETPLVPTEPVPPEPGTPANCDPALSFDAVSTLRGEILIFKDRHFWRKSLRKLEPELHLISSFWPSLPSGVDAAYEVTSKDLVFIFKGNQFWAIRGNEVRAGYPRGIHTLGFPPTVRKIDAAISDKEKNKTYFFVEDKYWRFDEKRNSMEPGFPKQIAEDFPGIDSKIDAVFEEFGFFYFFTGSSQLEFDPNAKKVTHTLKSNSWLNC
In series [20] the target is T6, Collagenase 3. In words: Inhibition of human MMP13 using Dnp-Pro-Cha-Gly-Cys(Me)-His-Ala-Lys(Nma)-NH2 substrate by fluorimetric analysis.
For series [21], the target named is T1, Matrix metalloproteinase-9. In words: Inhibition of human MMP-9.
For series [22], the target named is T2, 72 kDa type IV collagenase. The experiment in a line: Inhibition of human MMP-2.
Target sequence in this assay (P08253 whole entry): as the sequence (P08253 whole entry) above
Series [23] concerns the target T1, Matrix metalloproteinase-9. In words: Inhibition of MMP-9 (unknown origin) assessed as inhibition constant using Mca-Pro-Leu-Gly-Dpa-Ala-Arg-NH2 substrate preincubated for 1 hr followed by substrate addition and measured after 1 hr by fluorimetric analysis.
Series [24] has as its target T2, 72 kDa type IV collagenase. The experiment in a line: Inhibition of MMP-2 (unknown origin) assessed as inhibition constant using Mca-Pro-Leu-Gly-Dpa-Ala-Arg-NH2 substrate preincubated for 1 hr followed by substrate addition and measured after 1 hr by fluorimetric analysis.
Target sequence in this assay (P08253 whole entry): as above
Series [25] addresses T2, 72 kDa type IV collagenase. The experiment in a line: Inhibition of MMP-2 (unknown origin) using Ac-PLG-[2-mercapto-4-methylpentanoyl]-LG-OC2H5) as substrate measured upto 20 mins by microplate reader analysis.
Target sequence in this assay (P08253 whole entry): as above
The target of series [26] is T1, Matrix metalloproteinase-9. The experiment in a line: Inhibition of MMP-9 (unknown origin) using Ac-PLG-[2-mercapto-4-methylpentanoyl]-LG-OC2H5) as substrate measured upto 20 mins by microplate reader analysis.
Series [27] addresses T5, Interstitial collagenase. In words: Inhibition of recombinant human MMP1 expressed in Escherichia coli BL21 (DE3) using Mca-Pro-Leu-Gly-Leu-Dpa-Ala-Arg-NH2 as substrate incubated for 20 to 30 mins by fluorescence assay.
In series [28] the target is T3, Stromelysin-1. In words: Inhibition of recombinant human MMP3 expressed in Escherichia coli BL21 (DE3) using [3H]transferrin as substrate incubated for 3 hrs by scintillation counter analysis.
Target sequence in this assay (P08254 whole entry): as the sequence (P08254 whole entry) above
For series [29], the target named is T7, Matrilysin (Homo sapiens, UniProt P09237).
T7 sequence (P09237 whole entry): T4 sequence (whole entry)
In words: Inhibition of recombinant human MMP7 using […] as substrate incubated for 20 to 30 mins by fluorescence microplate reader analysis.

Series [30] concerns the target T1, Matrix metalloproteinase-9. The experiment in a line: Inhibition of recombinant human MMP9 using […] as substrate incubated for 20 to 30 mins by fluorescence microplate reader analysis.
Series [31] has as its target T6, Collagenase 3. In words: Inhibition of recombinant human MMP13 using […] as substrate incubated for 20 to 30 mins by fluorescence microplate reader analysis.

Chain of Macrophage metalloelastase (Homo sapiens) (P39900 106-470 limits assumed): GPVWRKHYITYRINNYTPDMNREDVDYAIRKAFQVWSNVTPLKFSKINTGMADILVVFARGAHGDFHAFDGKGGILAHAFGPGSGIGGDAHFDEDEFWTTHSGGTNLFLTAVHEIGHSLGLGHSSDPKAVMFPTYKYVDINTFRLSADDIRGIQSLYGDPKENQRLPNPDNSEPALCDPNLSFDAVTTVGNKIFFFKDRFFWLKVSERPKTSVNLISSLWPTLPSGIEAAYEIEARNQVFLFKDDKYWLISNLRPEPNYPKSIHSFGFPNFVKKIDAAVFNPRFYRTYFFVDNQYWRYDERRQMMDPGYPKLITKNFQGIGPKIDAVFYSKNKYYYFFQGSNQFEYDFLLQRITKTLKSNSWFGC
Chain of Neutrophil collagenase (P22894 101-467 limits assumed): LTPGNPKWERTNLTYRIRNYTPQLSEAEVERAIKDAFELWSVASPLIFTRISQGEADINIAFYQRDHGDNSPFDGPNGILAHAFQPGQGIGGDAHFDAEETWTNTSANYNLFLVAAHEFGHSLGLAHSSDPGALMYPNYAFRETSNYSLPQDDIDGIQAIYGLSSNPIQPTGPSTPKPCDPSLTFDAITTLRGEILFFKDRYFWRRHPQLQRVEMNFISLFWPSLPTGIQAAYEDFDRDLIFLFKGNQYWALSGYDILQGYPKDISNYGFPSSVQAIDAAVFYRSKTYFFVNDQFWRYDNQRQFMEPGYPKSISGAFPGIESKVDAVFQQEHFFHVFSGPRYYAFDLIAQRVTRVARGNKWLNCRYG

With `Cc1ccc(C#Cc2ccc(S(=O)(=O)N[C@H](C(=O)O)C(C)C)s2)cc1`, the negative-log IC50 (pIC50) in series [1] is 7.85. Also, the concentration in [2] peaked (Cmax) at 284 µM.
`CNC(=O)[C@H](Cc1ccccc1)NC(=O)[C@H](CC(C)C)[C@H](CSc1cccs1)C(=O)NO` [BATIMASTAT] gave a pIC50 in series [3] of 9.00.
For `O=CN(O)C(CS(=O)(=O)c1ccc(Oc2ccc(OC(F)(F)F)cc2)cc1)[C@@H](O)CO` (stereo partly specified), the pIC50 in series [4] was 10.04; in [5] it was 9.44.
For the molecule `FC(F)(F)c1ccc(N2CC2Cn2cc(CCCCCCc3cn(CC4CN4c4ccc(C(F)(F)F)cc4)nn3)nn2)cc1` (stereo unspecified), the inhibition was found to be 80.5% in series [6]; 27.1% in [7]; 27.5% in series [8]; 34.9% in [9]; 29.6% in series [10]; 26% in [11]. In series [12], the inhibition came to 22.3%.
As for `COc1ccc(S(=O)(=O)N(C)c2c(CN3CCOCC3)cc(C)cc2C(=O)NO)cc1`, the pIC50 was 8.30 in [3], 6.22 in series [13], 7.85 in series [14] and 6.76 in [15].
As to `COc1ccc(S(=O)(=O)N2CC(C)(C)C(CCSCc3ccccc3)C2C(=O)NO)cc1` (stereo unspecified), the pIC50 in [16] is 9.05; in series [17], 8.79; in series [18], 6.70; in [19], 8.17; in series [20], 8.26.
With `CCCN(C(CSC)C(=O)NO)S(=O)(=O)c1ccc(OC)cc1` (stereo unspecified), the negative-log IC50 (pIC50) in [21] is 9.70; in series [22] it was 9.15.
On to `COc1ccc(S(=O)(=O)N(C)c2c(C)cc(Cc3ccc(CN(C)C)cc3)cc2C(=O)NO)cc1`, for which the negative logarithm of the IC50 (pIC50) in series [3] was 8.52; in series [13], 6.67; in series [14] it was 7.96; in series [15] it was 6.61.
Consider `CCCCCCCCCC[C@@H](CC(=O)NO)C(=O)N[C@H](C(=O)NC)c1ccccc1`, for which the figures for the pIC50 in [23] and in [24] were 9.70 and 8.80, respectively.
With `O=C(NO)C1(S(=O)(=O)c2ccc(-n3cc(-c4ccc(-c5cncnc5)cc4)nn3)cc2)CCOCC1`, the pIC50 is 9.30 in [25] and 9.10 in series [26].
With `COc1ccc(S(=O)(=O)N2CCN(c3cccnc3)CC2C(=O)NO)cc1` (stereo unspecified), the pIC50 in [27] was 6.03; in series [28], 6.74; in [29], 4.56; in series [30] it was 7.49; in [31], 7.24.
